US20060173080A1, “Methods of modulating TNF using bupropion” (The Regents of the University of California, priority 2002, published 2006)
Counter-ions that a name gives are not always drawn.

Key:
IFN-gamma = assay: Serum IFN-gamma by ELISA in LPS-challenged mice; format: in vivo, BALB/c mice; conditions: bupropion 100 mg/kg i.p. 1 h before 600 μg LPS i.p., serum 4 h after LPS
Experimental: (§1) To study the immunomodulatory effects of bupropion we used a mouse model in which TNF production is induced by stimulation with lipopolysaccharide (LPS) (Bozza et al, The PACAP-type I receptor agonist maxadilan from sand fly saliva protects mice against lethal endotoxemia by a mechanism partially dependent on IL-10, Eur. J. Immunol. 28, 3120-3127, 1998). BALB/c mice were injected intraperitoneally (i.p.) with bupropion or placebo 1 h prior to i.p. injection of LPS (600 ug/mouse).
Male, 6 weeks old BALB/c mice were used in LPS-induced shock experiments. All mice were raised and maintained at the animal facilities at the Goncalo Moniz Research Center-FIOCRUZ, and provided with rodent diet and water ad libitum. Animal numbers in experimental groups were the minimum necessary to permit statistical analysis. All animals were sacrificed under anaesthesia. […]
(§2) TNF, IL-1beta, IFN-gamma and IL-10 concentrations in serum samples or in supernatants from macrophage cultures were determined by enzyme-linked immunosorbent assay (ELISA) using antibody pairs and recombinant cytokines from R&D systems (Minneapolis, Minn., USA), according to the manufacturer's instructions. After incubation with streptoavidin-peroxidase conjugate (Sigma), the reaction was developed using 3,3′, 5,5′-tetramethylbenzidine (TMB) peroxidase substrate and read at 450 nm. The serum concentration of nitrite (NO2−) was determined by the Griess reaction, as an indicator of nitric oxide production (Green et al., Analysis of nitrate nitrite and [^15N] nitrite in biological fluids. Anal. Biochem 126, 131-138, 1982). […] The absorbance of the reaction product at 540 nm was measured using an ELISA reader. The NO2^− concentration was determined by using sodium nitrite as standard. Data were analyzed using Student's t test, one-way ANOVA or Newman-Keuls multiple comparison test, using Graph Pad Prism 3.0 software. […]

BALB/c mice = assay: LPS-induced shock model: survival and signs of endotoxemia after lethal LPS challenge; format: in vivo; conditions: for survival after lethal LPS challenge: mouse, in vivo, hydrochloride
Experimental: Male BALB/c mice were injected with 11, 33 or 100 mg/kg of bupropion or with placebo i.p. in saline 1 h before challenge with 600 μg of E. coli LPS (Sigma, St. Louis, Mo.) by i.p. route. Mice were sacrificed 90 min for detection of cytokines in the serum by sandwich ELISA. Values represent the means±SEM of 5 mice per group. * P<0.05.
BALB/c mice were injected intraperitoneally (i.p.) with bupropion or placebo 1 h prior to i.p. injection of LPS (600 ug/mouse).
Male, 6 weeks old BALB/c mice were used in LPS-induced shock experiments. All mice were raised and maintained at the animal facilities at the Goncalo Moniz Research Center-FIOCRUZ, and provided with rodent diet and water ad libitum. Animal numbers in experimental groups were the minimum necessary to permit statistical analysis. All animals were sacrificed under anaesthesia.
In some experiments, groups of mice received i.p. injection of propranolol (1 mg/Kg), SCH23390 (25 μg/kg) and sulpiride (25 mg/Kg) 1 h prior to injection of bupropion. […] To determine serum TNF, IL-1 beta and IL-10 levels, mice were sacrificed 90 min after injection of LPS and bled by axilar vein puncture. Levels of IFN-gamma and nitric oxide were assayed using sera of mice sacrificed 4 h after LPS injection. Platelet and leukocyte cell counts were performed using blood collected with EDTA after 4 h of LPS challenge, using an automated cell counter (ADVIA 60, Bayer).

IL-10 = assay: Serum IL-10 by ELISA in LPS-challenged mice; format: in vivo, BALB/c mice; conditions: bupropion 100 mg/kg i.p. 1 h before 600 μg LPS i.p., serum 90 min after LPS, hydrochloride
Experimental: as §1
(§3) Male, 6 weeks old BALB/c mice were used in LPS-induced shock experiments. […]
as §2, with “reader.” for “reader. The NO2^− concentration was determined by using sodium nitrite as standard. Data were analyzed using Student's t test, one-way ANOVA or Newman-Keuls multiple comparison test, using Graph Pad Prism 3.0 software.”

TNF = conditions: Altschuler and Kast 2003; cited from earlier work
nitric oxide = assay: Serum nitrite (Griess reaction) as indicator of nitric oxide production in LPS-challenged mice; format: in vivo, BALB/c mice; conditions: bupropion i.p. 1 h before 600 μg LPS
Experimental: as §1, §3
as §2, with “reader.” for “reader. The NO2^− concentration was determined by using sodium nitrite as standard. Data were analyzed using Student's t test, one-way ANOVA or Newman-Keuls multiple comparison test, using Graph Pad Prism 3.0 software.”

β-adrenergic receptor = conditions: Garrcha et al. 1985; cited from earlier work
CD patients = conditions: Kast and Altschuler 2001; cited from earlier work
[1] = listed as bupropion hydrochloride

## CC(NC(C)(C)C)C(=O)c1cccc(Cl)c1 (racemic) [bupropion, (.±.)-1-(3-chlorophenyl)-2-[(1,1-dimethylethyl)amino]-1-propanone hydrochloride]
IFN-gamma; [1]
  serum IFN-gamma level compared with placebo: decrease
IFN-gamma; hydrochloride
  serum IFN-gamma level compared with placebo: significantly reduced
IFN-gamma; listed as Bupropion, hydrochloride
  serum IFN-gamma level compared with placebo: significantly decreased
BALB/c mice; bupropion 100 mg/kg, compared with placebo
  signs of endotoxemia (diarrhea, immobility, lethargy, piloerection, shivering): milder or absent
BALB/c mice
  survival after lethal LPS challenge: protects mice
BALB/c mice; [1]
  survival after lethal LPS challenge: increased survival rates
BALB/c mice; listed as buproprion
  survival after lethal LPS challenge: significantly increased the survival time
IL-10
  serum IL-10 level compared with placebo: significantly raised
IL-10; listed as Bupropion
  serum IL-10 level compared with placebo: significantly increased
TNF
  circulating TNF levels: lowers
Nitric oxide
  nitric oxide level compared with placebo: decreased with a trend toward significance
Nitric oxide; serum 4 h after LPS
  production of nitric oxide, reduction compared to placebo treated mice: about four-fold
β-adrenergic receptor
  compensatory β-adrenergic receptor down-regulation: does not cause
CD patients
  clinical remission of CD (published cases): clinical remission
